Where two headings read alike, the source gives them in different places.
Legend:
circulating lymphocytes = test: Assessment of in vivo efficacy: circulating lymphocytes after oral administration; parameters: species or system rat; details: 6 h after oral administration of 10 mg/kg, normotensive male Wistar rats, compared to vehicle-treated group
Protocol: Assessment of In Vivo Efficacy
The efficacy of the compounds of Formula (I) is assessed by measuring the circulating lymphocytes after oral administration of 3 to 30 mg/kg of a compound of Formula (I) to normotensive male Wistar rats. The animals are housed in climate-controlled conditions with a 12 h-light/dark cycle, and have free access to normal rat chow and drinking water. Blood is collected before and 3, 6 and 24 h after drug administration. Full blood is subjected to hematology using Advia Hematology system (Bayer Diagnostics, Zürich, Switzerland).
All data are presented as mean±SEM. Statistical analyses are performed by analysis of variance (ANOVA) using Statistica (StatSoft) and the Student-Newman-Keuls procedure for multiple comparisons. The null hypothesis is rejected when p<0.05.

[1] = target: recombinant human S1P1 receptor (Homo sapiens, UniProt P21453); test: GTPγS assay to determine EC50 values; assay type: biochemical
Chain of recombinant human S1P1 receptor (P21453 whole entry): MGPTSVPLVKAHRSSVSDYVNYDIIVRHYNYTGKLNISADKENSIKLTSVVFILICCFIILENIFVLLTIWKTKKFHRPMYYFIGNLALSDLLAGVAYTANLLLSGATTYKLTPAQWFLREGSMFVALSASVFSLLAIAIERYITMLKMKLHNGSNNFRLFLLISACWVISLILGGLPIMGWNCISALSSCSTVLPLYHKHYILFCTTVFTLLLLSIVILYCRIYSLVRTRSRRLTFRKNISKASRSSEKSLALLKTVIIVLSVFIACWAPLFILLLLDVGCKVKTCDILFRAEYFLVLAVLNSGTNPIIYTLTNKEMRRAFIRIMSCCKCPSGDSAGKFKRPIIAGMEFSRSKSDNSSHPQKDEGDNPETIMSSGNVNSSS
Protocol: GTPγS Assay to Determine EC50 Values
The pH is 7.4. Test compounds are dissolved and diluted in 100% DMSO and pre-incubated at room temperature for 30 min in 150 μl of the above assay buffer, in the absence of ^35S-GTPγS. After addition of 50 μl of ^35S-GTPγS, the assay is incubated for 1 h at rt. […] Membrane-bound ^35S-GTPγS is measured with a TopCount from Packard Biosciences.
Specific binding is determined by subtracting non-specific binding from maximal binding. Maximal binding is the amount of cpm bound to the Multiscreen plate in the presence of 10 μM of S1P. Non-specific binding is the amount of binding in the absence of an agonist in the assay.

[2] = 35S-GTPγS binding, membranes of CHO cells expressing human S1P1, read-out: EC50
[3] = 35S-GTPγS binding, membrane preparations of CHO cells expressing recombinant human S1P1 receptor, read-out: EC50

| EC50 [1, 3] [nM] | SMILES | further results |
| --- | --- | --- |
| 8.9 | CCN(CC)c1ncc(-c2nc(-c3cc(Cl)c(OC[C@@H](O)CO)c(OC)c3)no2)cc1C [Example 64, (S)-3-{2-Chloro-4-[5-(6-diethylamino-5-methyl-pyridin-3-yl)-[1,2,4]oxadiazol-3-yl]-6-methoxy-phenoxy}-propane-1,2-diol] |  |
| 1.3 | CCN(CC)c1ncc(-c2nc(-c3cc(C)c(OC[C@@H](O)CNC(=O)CO)c(Cl)c3)no2)cc1C [Example 56, N-((S)-3-{2-Chloro-4-[5-(6-diethylamino-5-methyl-pyridin-3-yl)-[1,2,4]oxadiazol-3-yl]-6-methyl-phenoxy}-2-hydroxy-propyl)-2-hydroxy-acetamide] |  |
| 4 | CCc1cc(-c2nc(-c3cc(C)c(CCC(=O)NCC(=O)O)c(CC)c3)no2)cnc1N(CC)CC [Example 44, (3-{4-[5-(6-Diethylamino-5-ethyl-pyridin-3-yl)-[1,2,4]oxadiazol-3-yl]-2-ethyl-6-methyl-phenyl}-propionylamino)-acetic acid] |  |
| 14 | CCN(CC)c1ncc(-c2nc(-c3ccc(OC[C@@H](O)CNC(=O)CO)cc3C)no2)cc1C [Example 58, N-((S)-3-{4-[5-(6-Diethylamino-5-methyl-pyridin-3-yl)-[1,2,4]oxadiazol-3-yl]-3-methyl-phenoxy}-2-hydroxy-propyl)-2-hydroxy-acetamide] |  |
| 21.2 | CCc1cc(-c2nnc(-c3cnc(N(CC)CC)c(C)c3)o2)cc(C)c1OC[C@@H](O)CNC(=O)CO [Example 68, N-((2S)-3-{4-[5-(6-Diethylamino-5-methyl-pyridin-3-yl)-[1,3,4]oxadiazol-2-yl]-2-ethyl-6-methyl-phenoxy}-2-hydroxy-propyl)-2-hydroxy-acetamide] |  |
| 5.2 | CCN(CC)c1ncc(-c2nc(-c3cc(C)c(OC[C@@H](O)CO)c(Cl)c3)no2)cc1C [Example 63, (S)-3-{2-Chloro-4-[5-(6-diethylamino-5-methyl-pyridin-3-yl)-[1,2,4]oxadiazol-3-yl]-6-methyl-phenoxy}-propane-1,2-diol] |  |
| 0.9 | CCN(CC)c1ncc(-c2nc(-c3cc(C)c(OC[C@@H](O)CNC(=O)CO)c(C)c3)no2)cc1C [Example 55, N-((S)-3-{4-[5-(6-Diethylamino-5-methyl-pyridin-3-yl)-[1,2,4]oxadiazol-3-yl]-2,6-dimethyl-phenoxy}-2-hydroxy-propyl)-2-hydroxy-acetamide] |  |

The next lines start with the compound.

| SMILES | EC50 [1, 3] [nM] | further results |
| --- | --- | --- |
| CCc1cc(-c2noc(-c3cnc(N(CC)CC)c(C)c3)n2)cc(C)c1OC[C@@H](O)CNC(=O)CO [Example 8, N-((S)-3-{-4-[5-(6-Diethylamino-5-methyl-pyridin-3-yl)-[1,2,4]oxadiazol-3-yl]-2-ethyl-6-methyl-phenoxy}-2-hydroxy-propyl)-2-hydroxy-acetamide] |  | Lymphocyte counts (circulating lymphocytes): −66% |
| CCc1cc(-c2noc(-c3cnc(N4CCCC4)c(C)c3)n2)cc(C)c1OC[C@H](O)CN [Example 18] |  | EC50 [1, 2]: > 10000 nM |
| CCc1cc(-c2nc(-c3cc(C)c(OC[C@H](O)CNC(=O)CO)c(CC)c3)no2)cnc1N(C)C(C)C [Example 34, N-[(R)-3-(2-Ethyl-4-{5-[5-ethyl-6-(isopropyl-methyl-amino)-pyridin-3-yl]-[1,2,4]oxadiazol-3-yl}-6-methyl-phenoxy)-2-hydroxy-propyl]-2-hydroxy-acetamide] | 3 |  |
| CCc1cc(-c2nc(-c3cc(C)c(OC[C@@H](O)CO)c(CC)c3)no2)cnc1N(CC)CC [Example 24, (S)-3-{4-[5-(6-Diethylamino-5-ethyl-pyridin-3-yl)-[1,2,4]oxadiazol-3-yl]-2-ethyl-6-methyl-phenoxy}-propane-1,2-diol] | 12 |  |
| CCc1cc(-c2noc(-c3cnc(N(C)C(C)C)c(C)c3)n2)cc(C)c1OC[C@@H](O)CNC(=O)CO [Example 15, N-[(S)-3-(2-Ethyl-4-{5-[6-(isopropyl-methyl-amino)-5-methyl-pyridin-3-yl]-[1,2,4]oxadiazol-3-yl}-6-methyl-phenoxy)-2-hydroxy-propyl]-2-hydroxy-acetamide] | 20 |  |
| CCc1cc(-c2nc(-c3cc(C)c(OC[C@@H](O)CNC(=O)CO)c(CC)c3)no2)cnc1N1CCCC1 [Example 54, N-((S)-3-{2-Ethyl-4-[5-(5-ethyl-6-pyrrolidin-1-yl-pyridin-3-yl)-[1,2,4]oxadiazol-3-yl]-6-methyl-phenoxy}-2-hydroxy-propyl)-2-hydroxy-acetamide] |  | Lymphocyte counts (circulating lymphocytes): −57% |
| CCc1cc(-c2nc(-c3cc(C)c(OC[C@H](O)CNC(=O)CO)c(CC)c3)no2)cnc1N(CC)CC [Example 27, N-((R)-3-{4-[5-(6-Diethylamino-5-ethyl-pyridin-3-yl)-[1,2,4]oxadiazol-3-yl]-2-ethyl-6-methyl-phenoxy}-2-hydroxy-propyl)-2-hydroxy-acetamide] |  | Lymphocyte counts (circulating lymphocytes): −55% |
| CCc1cc(-c2nc(-c3cc(C)c(OC[C@@H](O)CNC(=O)CO)c(CC)c3)no2)cnc1N(CC)CC [Example 28, N-((S)-3-{4-[5-(6-Diethylamino-5-ethyl-pyridin-3-yl)-[1,2,4]oxadiazol-3-yl]-2-ethyl-6-methyl-phenoxy}-2-hydroxy-propyl)-2-hydroxy-acetamide] |  | Lymphocyte counts (circulating lymphocytes): −56% |
| CCc1cc(-c2noc(-c3cnc(N4CCCC4)c(C)c3)n2)cc(C)c1OC[C@@H](O)CN [Example 19] |  | EC50 [1, 2]: > 10000 nM |
| CCc1cc(-c2nc(-c3cc(C)c(CCC(=O)NCCO)c(CC)c3)no2)cnc1N(C)C(C)C [Example 46, 3-(2-Ethyl-4-{5-[5-ethyl-6-(isopropyl-methyl-amino)-pyridin-3-yl]-[1,2,4]oxadiazol-3-yl}-6-methyl-phenyl)-N-(2-hydroxy-ethyl)-propionamide] |  | EC50 [1]: 5 nM |
| CCc1cc(-c2noc(-c3cnc(N(C)CC)c(C)c3)n2)cc(C)c1OC[C@H](O)CNC(=O)CO [Example 6, N-[(R)-3-(2-Ethyl-4-{5-[6-(ethyl-methyl-amino)-5-methyl-pyridin-3-yl]-[1,2,4]oxadiazol-3-yl}-6-methyl-phenoxy)-2-hydroxy-propyl]-2-hydroxy-acetamide] | 3 |  |
| CCc1cc(-c2nc(-c3cc(C)c(OC[C@@H](O)CO)c(CC)c3)no2)cnc1N(C)C(C)C [Example 31, (S)-3-(2-Ethyl-4-{5-[5-ethyl-6-(isopropyl-methyl-amino)-pyridin-3-yl]-[1,2,4]oxadiazol-3-yl}-6-methyl-phenoxy)-propane-1,2-diol] | 17 |  |

From patent publication US20110028448A1, “PYRIDINE COMPOUNDS” (priority 2008, published 2011)
